Experimental data published in US20250057844A1, “METHODS OF TREATING NEOPLASTIC DISEASES” (SILLAJEN, INC., priority 2021, published 2025).
Entries after “also recorded” stand apart in the source; their conditions may differ. Where two headings read alike, the source gives them in different places.

Key:
MDA-MB-231 tumor cells = experiment: MDA-MB-231 TNBC xenograft study
Description: Female NCr nu/nu nude mice (CharlesRiver laboratories) of 8-12 weeks of age were subcutaneously (s.c.) inoculated in the flank with 5×10^6 MDA-MB-231 tumor cells. Randomization into treatment groups (8 mice per group) was made when the mean tumor size was 100-150 mm3.
Body weights and tumor volumes were determined at least twice per week by measuring two dimensions with calipers and applying the formula “V=(L×W2)/2”, where V is the tumor volume, and L and W are the tumor length and width respectively. […] Mice were also culled if the BWL was determined to be >15% for 3 consecutive days. Any mice with >10% BWL received a dosing holiday until the BWL returned to <10%. All animal protocols were reviewed and approved by the relevant local committees in USA (IACUC) where the studies were performed.

[1] = Second PK study: daily oral dose for 5 days, two formulations; assay type: in vivo, female Swiss Albino mice; details: for AUC(0-t): AUC0-24 h
Description: In a second study female Swiss Albino mice were administered daily oral dose of 5, 7.5, or 10 mg/kg of the compound of formula (I) for 5 days. […] PK samples were collected on day 5 for groups 1 to 6. Formulation 1 consisted of DMSO, cremophor EL, and 5% mannitol in water (10/10/80; v/v/v). Formulation 2 consisted of ethanol, PEG 400, and citric acid 20 mM (10/10/80; v/v/v). […] In each of the three studies blood was collected via the sephanous vein into K2-EDTA tubes kept on ice until centrifugation at 4° C. Plasma was stored at ap-proximately-80° C. […] PK parameters were calculated using Phoenix® WinNonLin 6.4. PK analysis was based on sparse sampling.

tumor-derived TTK = target: T1, tumor-derived TTK (Homo sapiens, UniProt P33981); experiment: Tumor TTK target occupancy in MDA-MB-231 xenograft-bearing mice; assay type: in vivo
T1 construct: TTK target occupancy was also measured in tumors derived from MDA-MB-231 xenograft-bearing mice; from tissue; host or cells: MDA-MB-231 xenograft tumours grown in mice
T1 sequence (P33981 1-857): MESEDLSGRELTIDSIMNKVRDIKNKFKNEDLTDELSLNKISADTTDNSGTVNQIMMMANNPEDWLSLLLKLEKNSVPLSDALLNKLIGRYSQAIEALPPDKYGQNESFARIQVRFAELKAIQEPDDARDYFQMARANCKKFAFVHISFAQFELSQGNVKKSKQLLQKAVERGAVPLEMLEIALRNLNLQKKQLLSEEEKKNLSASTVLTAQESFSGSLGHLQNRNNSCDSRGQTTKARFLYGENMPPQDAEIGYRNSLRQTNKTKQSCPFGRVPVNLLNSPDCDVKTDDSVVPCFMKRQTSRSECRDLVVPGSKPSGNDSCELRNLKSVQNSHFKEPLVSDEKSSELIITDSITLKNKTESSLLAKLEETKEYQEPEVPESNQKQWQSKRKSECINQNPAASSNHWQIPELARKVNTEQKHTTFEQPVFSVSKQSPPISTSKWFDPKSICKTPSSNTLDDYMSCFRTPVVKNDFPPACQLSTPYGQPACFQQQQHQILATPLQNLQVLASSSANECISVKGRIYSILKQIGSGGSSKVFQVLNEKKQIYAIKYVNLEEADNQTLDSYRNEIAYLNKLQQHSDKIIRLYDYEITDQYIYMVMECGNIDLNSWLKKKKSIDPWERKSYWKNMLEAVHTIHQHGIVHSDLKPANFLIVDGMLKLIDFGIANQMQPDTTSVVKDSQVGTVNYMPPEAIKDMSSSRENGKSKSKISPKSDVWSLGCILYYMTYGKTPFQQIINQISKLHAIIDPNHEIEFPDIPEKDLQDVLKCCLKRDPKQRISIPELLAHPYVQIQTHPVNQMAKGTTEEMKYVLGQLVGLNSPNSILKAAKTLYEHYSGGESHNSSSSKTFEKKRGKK
Description: Prolonged TTK target occupancy was also measured in tumors derived from MDA-MB-231 xenograft-bearing mice treated with intermittent i.v. dosing regimen of compound of formula (I). […]

[2] = Maximum tolerated dose (MTD) in mice; details: mouse, in vivo
[3] = day 5, daily oral 5 mg/kg, Formulation 1, female mice
[4] = day 5, daily oral 5 mg/kg, Formulation 2, female mice
[5] = day 5, daily oral 7.5 mg/kg, Formulation 1, female mice
[6] = day 5, daily oral 7.5 mg/kg, Formulation 2, female mice
[7] = day 5, daily oral 10 mg/kg, Formulation 1, female mice
[8] = day 5, daily oral 10 mg/kg, Formulation 2, female mice
[9] = female, Swiss Albino, mouse, plasma, po, 5 mg/kg, day 5, daily oral 5 mg/kg, Formulation 1, female mice
[10] = female, Swiss Albino, mouse, plasma, po, 5 mg/kg, day 5, daily oral 5 mg/kg, Formulation 2, female mice
[11] = female, Swiss Albino, mouse, plasma, po, 7.5 mg/kg, day 5, daily oral 7.5 mg/kg, Formulation 1, female mice
[12] = female, Swiss Albino, mouse, plasma, po, 7.5 mg/kg, day 5, daily oral 7.5 mg/kg, Formulation 2, female mice
[13] = female, Swiss Albino, mouse, plasma, po, 10 mg/kg, day 5, daily oral 10 mg/kg, Formulation 1, female mice
[14] = female, Swiss Albino, mouse, plasma, po, 10 mg/kg, day 5, daily oral 10 mg/kg, Formulation 2, female mice

COc1cc(N2CCNCC2)ccc1Nc1ncc2c(n1)-n1ccc(C(=O)Nc3c(C)cccc3C)c1CC2 [compound of formula (I)]
Tumor-free (%) (cured based on pathological analysis) (MDA-MB-231 tumor cells; 25 mg/kg, QW, IV): 25% | Tumor-free (pathological evaluation) (MDA-MB-231 tumor cells; 25 mg/kg, QW, IV, mouse 2 and 3): no detectable residual tumor cells; also recorded: no neoplastic epithelial cells (residual tumor cells) were observed | Tumor-free (pathological evaluation) (MDA-MB-231 tumor cells; 25 mg/kg, QW, IV, mouse 2 and 3, listed as Formula (I)): Yes | Tumor-free (pathological evaluation) (MDA-MB-231 tumor cells; 25 mg/kg, QW, IV, mouse 8): two small aggregates of neoplastic cells at the inoculation site; also recorded: still displayed some neoplastic tissue | Tumor-free (pathological evaluation) (MDA-MB-231 tumor cells; 25 mg/kg, QW, IV, mouse 8, listed as Formula (I)): No | local finding leading to treatment stop at Day-30 (MDA-MB-231 tumor cells; 2QW MTD i.v. dosing, repeated IV-injections): tail vein irritations (scabbing) | efficacy of 0.5×MTD i.v. dosing versus MTD daily oral dosing (MDA-MB-231 tumor cells; FIG. 3 and FIG. 4): equipotent efficacy | animals with no measurable/palpable tumor mass (MDA-MB-231 tumor cells; QW MTD i.v. until Day-98, observed Day-80 to Day-125, two of eight animals (FIG. 3 study)): 25% | residual tumor cells by H&E (two animals without palpable tumor) (MDA-MB-231 tumor cells; QW MTD i.v., FIG. 3 study, Day-125): tumor-free | efficacy of MTD i.v. dosing versus MTD oral daily treatment (MDA-MB-231 tumor cells; QW and 2QW i.v., FIG. 3 and FIG. 4): far superior | drug-related animal deaths (MDA-MB-231 tumor cells; all i.v. QW and 2QW treatments, FIG. 1): no drug-related animal deaths recorded | body weight loss (MDA-MB-231 tumor cells; dosing at the MTD, i.v., FIG. 1): ≤ 10% | anti-tumor effect (MDA-MB-231 tumor cells; i.v. MTD-dosing (QW 25 mg/kg, 2QW 12.5 mg/kg), FIG. 1): tumor stasis and tumor regressions were observed | tolerability (MDA-MB-231 tumor cells; mouse, in vivo): relatively well tolerated, with no animal deaths | tumor volume of three of eight tumors after treatment cessation (MDA-MB-231 tumor cells; weekly i.v. MTD group, 20 days observation after cessation on D100): ≤ 6 mm3 | Tmax ([1]; Swiss Albino, mouse, plasma, day 5, daily oral 5 mg/kg, Formulation 1, female mice, read-out: Tmax): 2 h | Tmax ([1]; Swiss Albino, mouse, plasma, day 5, daily oral 7.5 mg/kg, Formulation 1, female mice, read-out: Tmax): 4 h | Tmax ([1]; Swiss Albino, mouse, plasma, day 5, daily oral 10 mg/kg, Formulation 1, female mice, read-out: Tmax): 4 h | % extrapolated [1, 3]: 8.33% | AUCinf/Dose [1, 3]: 81.6 ng·h/mL/mg/kg | AUClast/Dose [1, 3]: 74.8 (h*ng/mL)/(mg/kg) | Cmax/Dose [1, 3]: 5.16 (ng/mL)/(mg/kg) | % extrapolated [1, 4]: 1.53% | AUCinf/Dose [1, 4]: 116 ng·h/mL/mg/kg | AUClast/Dose [1, 4]: 114 (h*ng/mL)/(mg/kg) | Cmax/Dose [1, 4]: 9.48 (ng/mL)/(mg/kg) | % extrapolated [1, 5]: 5.04% | AUCinf/Dose [1, 5]: 50 ng·h/mL/mg/kg | AUClast/Dose [1, 5]: 47.5 (h*ng/mL)/(mg/kg) | Cmax/Dose [1, 5]: 6.03 (ng/mL)/(mg/kg) | % extrapolated [1, 6]: 1.77% | AUCinf/Dose [1, 6]: 82.4 ng·h/mL/mg/kg | AUClast/Dose [1, 6]: 80.9 (h*ng/mL)/(mg/kg) | Cmax/Dose [1, 6]: 8.36 (ng/mL)/(mg/kg) | % extrapolated [1, 7]: 7.41% | AUCinf/Dose [1, 7]: 60.8 ng·h/mL/mg/kg | AUClast/Dose [1, 7]: 56.3 (h*ng/mL)/(mg/kg) | Cmax/Dose [1, 7]: 4.01 (ng/mL)/(mg/kg) | % extrapolated [1, 8]: 12.7% | AUCinf/Dose [1, 8]: 87 ng·h/mL/mg/kg | AUClast/Dose [1, 8]: 76 (h*ng/mL)/(mg/kg) | Cmax/Dose [1, 8]: 5.65 (ng/mL)/(mg/kg) | bioavailability ([1]; female, Swiss Albino, mouse, plasma, oral, multiple daily dose administration, based on i.v. exposure, read-out: oral bioavailability): 18 to 41% | AUC(0-inf) [1, 9]: 408 ng·h/mL | Cmax [1, 9]: 25.8 ng/mL | AUC(0-t) [1, 9]: 374 ng·h/mL | bioavailability ([1]; female, Swiss Albino, mouse, plasma, po, 5 mg/kg, day 5, daily oral 5 mg/kg, Formulation 1, female mice, based on iv exposure, read-out: F (%)): 29% | half-life at 5 days ([1]; female, Swiss Albino, mouse, plasma, po, 5 mg/kg, day 5, daily oral 5 mg/kg, Formulation 1, female mice, read-out: Apparent T1/2 (converted)): 7.8 h | AUC(0-inf) [1, 10]: 579 ng·h/mL | Cmax [1, 10]: 47.4 ng/mL | AUC(0-t) [1, 10]: 570 ng·h/mL | bioavailability ([1]; female, Swiss Albino, mouse, plasma, po, 5 mg/kg, day 5, daily oral 5 mg/kg, Formulation 2, female mice, based on iv exposure, read-out: F (%)): 41% | half-life ([1]; female, Swiss Albino, mouse, plasma, po, 5 mg/kg, day 5, daily oral 5 mg/kg, Formulation 2, female mice, read-out: Apparent T1/2 (converted)): 4.02 h | AUC(0-inf) [1, 11]: 375 ng·h/mL | Cmax [1, 11]: 45.2 ng/mL | AUC(0-t) [1, 11]: 356 ng·h/mL | bioavailability ([1]; female, Swiss Albino, mouse, plasma, po, 7.5 mg/kg, day 5, daily oral 7.5 mg/kg, Formulation 1, female mice, based on iv exposure, read-out: F (%)): 18% | half-life ([1]; female, Swiss Albino, mouse, plasma, po, 7.5 mg/kg, day 5, daily oral 7.5 mg/kg, Formulation 1, female mice, read-out: Apparent T1/2 (converted)): 5.31 h | AUC(0-inf) [1, 12]: 618 ng·h/mL | Cmax [1, 12]: 62.7 ng/mL | AUC(0-t) [1, 12]: 607 ng·h/mL | bioavailability ([1]; female, Swiss Albino, mouse, plasma, po, 7.5 mg/kg, day 5, daily oral 7.5 mg/kg, Formulation 2, female mice, based on iv exposure, read-out: F (%)): 29% | half-life ([1]; female, Swiss Albino, mouse, plasma, po, 7.5 mg/kg, day 5, daily oral 7.5 mg/kg, Formulation 2, female mice, read-out: Apparent T1/2 (converted)): 3.79 h | AUC(0-inf) [1, 13]: 608 ng·h/mL | Cmax [1, 13]: 40.1 ng/mL | AUC(0-t) [1, 13]: 563 ng·h/mL | bioavailability ([1]; female, Swiss Albino, mouse, plasma, po, 10 mg/kg, day 5, daily oral 10 mg/kg, Formulation 1, female mice, based on iv exposure, read-out: F (%)): 22% | half-life ([1]; female, Swiss Albino, mouse, plasma, po, 10 mg/kg, day 5, daily oral 10 mg/kg, Formulation 1, female mice, read-out: Apparent T1/2 (converted)): 5.81 h | AUC(0-inf) [1, 14]: 870 ng·h/mL | Cmax [1, 14]: 56.5 ng/mL | AUC(0-t) [1, 14]: 760 ng·h/mL | bioavailability ([1]; female, Swiss Albino, mouse, plasma, po, 10 mg/kg, day 5, daily oral 10 mg/kg, Formulation 2, female mice, based on iv exposure, read-out: F (%)): 31% | half-life ([1]; female, Swiss Albino, mouse, plasma, po, 10 mg/kg, day 5, daily oral 10 mg/kg, Formulation 2, female mice, read-out: Apparent T1/2 (converted)): 7.66 h | Tmax ([1]; female, Swiss Albino, mouse, plasma, day 5 of daily oral administration, read-out: median Tmax): 2 to 4 h | time TTK completely occupied after last dose (tumor-derived TTK; IV twice-weekly, MTD dose, MDA-MB-231 tumors): at least 72 h | time tumor-derived TTK fully drug-occupied after last administration (tumor-derived TTK; IV weekly MTD dosing, repeat experiment): up to 6 days | MTD ([2]; iv, 2QW): 12.5 mg/kg | MTD ([2]; iv, QW): 25 mg/kg | MTD ([2]; po, orally daily): 7.5 mg/kg
